Reference: the supplement of paper PMC10627819

Assays:
B. subtilis 168 [1] = experiment: fitness (endpoint OD595 vs no drug) (fraction); higher = more growth
Outline: (§1)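 At 37 °C, bacteria in TSB, LB Lennox or CY were grown in 384-well plates from a starting OD595 of 0.01. OD595 was measured every 30 min for 14 h, with the first reading used as background. Fitness is the optical density at the switch to stationary phase as a fraction of the robust mean of no-drug control wells, capped at 1.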

S. aureus DSM 20231 [2] = experiment: as above
Outline: as §1

S. aureus Newman [3] = experiment: as above
Outline: as §1

S. pneumoniae D39V [4] = experiment: as above
Outline: as §1

B. subtilis 168 [5] = experiment: Bliss interaction score (quartile over a dose matrix) (fitness difference); higher = more antagonism (negative = synergy)
Outline: (§2)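 Quartiles summarise the Bliss score over technical, biological and donor/recipient replicates, where the score is observed minus expected fitness under a product model. Expected fitness uses single-drug values inferred from combination data. Fitness is OD595 at entry into stationary phase over the plate's robust no-drug mean, capped at 1.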

S. aureus DSM 20231 [6] = experiment: as above
Outline: as §2

S. aureus Newman [7] = experiment: as above
Outline: as §2

S. pneumoniae D39V [8] = experiment: as above
Outline: as §2
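For Bliss interaction score (quartile over a dose matrix) in this document: first quartile when negative (synergy) and third quartile when positive (antagonism).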

CCC[C@@H]1C[C@@H](C(=O)N[C@@H]([C@H]2O[C@H](SC)[C@H](O)[C@@H](O)[C@H]2O)[C@H](C)Cl)N(C)C1 [Clindamycin] + Cc1onc(-c2ccccc2)c1C(=O)N[C@@H]1C(=O)N2[C@@H]1SC(C)(C)[C@@H]2C(=O)O [Oxacillin]
fitness, B. subtilis 168 [1], one replicate
Conditions	first compound 0.0039 µg/mL	first compound 0.0078 µg/mL	first compound 0.0156 µg/mL	first compound 0.0625 µg/mL	first compound 0.125 µg/mL	first compound 0.25 µg/mL
partner 0.0078 µg/mL	0.953	0.903	0.828	–	–	–
partner 0.0155 µg/mL	0.963	0.897	0.805	–	–	–
partner 0.031 µg/mL	0.947	0.865	0.822	–	–	–
partner 0.075 µg/mL	–	–	–	0.237	0.0774	0.0582
partner 0.15 µg/mL	–	–	–	0.063	0.066	0.0705
partner 0.3 µg/mL	–	–	–	0.0546	0.0304	0.0517

Conditions	fitness
B. subtilis 168 [1], first compound 0.0625 µg/mL, partner 0.002 µg/mL	0.546
B. subtilis 168 [1], first compound 0.0625 µg/mL, partner 0.004 µg/mL	0.531
B. subtilis 168 [1], first compound 0.0625 µg/mL, partner 0.008 µg/mL	0.524
B. subtilis 168 [1], first compound 0.125 µg/mL, partner 0.002 µg/mL	0.396
B. subtilis 168 [1], first compound 0.125 µg/mL, partner 0.004 µg/mL	0.367
B. subtilis 168 [1], first compound 0.125 µg/mL, partner 0.008 µg/mL	0.367
B. subtilis 168 [1], first compound 0.25 µg/mL, partner 0.002 µg/mL	0.382
B. subtilis 168 [1], first compound 0.25 µg/mL, partner 0.004 µg/mL	0.372
B. subtilis 168 [1], first compound 0.25 µg/mL, partner 0.008 µg/mL	0.361
S. aureus DSM 20231 [2], first compound 0.0312 µg/mL, partner 0.0312 µg/mL	0.486
S. aureus DSM 20231 [2], first compound 0.0312 µg/mL, partner 0.0625 µg/mL	0.355
S. aureus DSM 20231 [2], first compound 0.0625 µg/mL, partner 0.0156 µg/mL	0.0861
S. aureus DSM 20231 [2], first compound 0.0625 µg/mL, partner 0.0312 µg/mL	0.0909
S. aureus DSM 20231 [2], first compound 0.0625 µg/mL, partner 0.0625 µg/mL	0.0694
S. aureus DSM 20231 [2], first compound 0.125 µg/mL, partner 0.0156 µg/mL	0.0621
S. aureus DSM 20231 [2], first compound 0.125 µg/mL, partner 0.0312 µg/mL	0.0625
S. aureus DSM 20231 [2], first compound 0.125 µg/mL, partner 0.0625 µg/mL	0.0779
S. aureus Newman [3], first compound 0.0312 µg/mL, partner 0.0156 µg/mL	0.71
S. aureus Newman [3], first compound 0.0312 µg/mL, partner 0.0312 µg/mL	0.673
S. aureus Newman [3], first compound 0.0312 µg/mL, partner 0.0625 µg/mL	0.557
S. aureus Newman [3], first compound 0.0625 µg/mL, partner 0.0625 µg/mL	0.31
S. aureus Newman [3], first compound 0.125 µg/mL, partner 0.0156 µg/mL	0.189
S. aureus Newman [3], first compound 0.125 µg/mL, partner 0.0312 µg/mL	0.105
S. aureus Newman [3], first compound 0.125 µg/mL, partner 0.0625 µg/mL	0.0973
S. pneumoniae D39V [4], first compound 0.0125 µg/mL, partner 0.005 µg/mL	0.754
S. pneumoniae D39V [4], first compound 0.0125 µg/mL, partner 0.01 µg/mL	0.786
S. pneumoniae D39V [4], first compound 0.0125 µg/mL, partner 0.02 µg/mL	0.804
S. pneumoniae D39V [4], first compound 0.015 µg/mL, partner 0.01 µg/mL	0.854
S. pneumoniae D39V [4], first compound 0.015 µg/mL, partner 0.02 µg/mL	0.817
S. pneumoniae D39V [4], first compound 0.015 µg/mL, partner 0.04 µg/mL	0.546
S. pneumoniae D39V [4], first compound 0.025 µg/mL, partner 0.005 µg/mL	0.561
S. pneumoniae D39V [4], first compound 0.025 µg/mL, partner 0.01 µg/mL	0.521
S. pneumoniae D39V [4], first compound 0.025 µg/mL, partner 0.02 µg/mL	0.524
S. pneumoniae D39V [4], first compound 0.03 µg/mL, partner 0.01 µg/mL	0.7
S. pneumoniae D39V [4], first compound 0.03 µg/mL, partner 0.02 µg/mL	0.677
S. pneumoniae D39V [4], first compound 0.03 µg/mL, partner 0.04 µg/mL	0.423
S. pneumoniae D39V [4], first compound 0.05 µg/mL, partner 0.005 µg/mL	0.278
S. pneumoniae D39V [4], first compound 0.05 µg/mL, partner 0.01 µg/mL	0.291
S. pneumoniae D39V [4], first compound 0.05 µg/mL, partner 0.02 µg/mL	0.29

Conditions	Bliss interaction score
B. subtilis 168 [5]	0.0308
S. aureus DSM 20231 [6]	0.0814
S. aureus Newman [7]	0.09
S. pneumoniae D39V [8]	0.105

CCC[C@@H]1C[C@@H](C(=O)N[C@@H]([C@H]2O[C@H](SC)[C@H](O)[C@@H](O)[C@H]2O)[C@H](C)Cl)N(C)C1 [Clindamycin] + Cc1ncc([N+](=O)[O-])n1CCO [Metronidazole]
fitness, one replicate
Conditions	first compound 0.0039 µg/mL	first compound 0.0078 µg/mL	first compound 0.0156 µg/mL	first compound 0.0312 µg/mL	first compound 0.0625 µg/mL	first compound 0.125 µg/mL
B. subtilis 168 [1], partner 0.625 µg/mL	0.918	0.528	0.83	–	–	–
B. subtilis 168 [1], partner 1.25 µg/mL	0.984	0.804	0.842	–	–	–
B. subtilis 168 [1], partner 2.5 µg/mL	0.907	0.547	0.867	–	–	–
S. aureus Newman [3], partner 0.781 µg/mL	–	–	–	0.71	0.533	0.0936
S. aureus Newman [3], partner 1.562 µg/mL	–	–	–	0.72	0.582	0.13
S. aureus Newman [3], partner 3.124 µg/mL	–	–	–	0.688	0.595	0.113

Conditions	fitness
B. subtilis 168 [1], first compound 0.0625 µg/mL, partner 0.625 µg/mL	0.572
B. subtilis 168 [1], first compound 0.0625 µg/mL, partner 1.25 µg/mL	0.54
B. subtilis 168 [1], first compound 0.0625 µg/mL, partner 2.5 µg/mL	0.548
B. subtilis 168 [1], first compound 0.125 µg/mL, partner 0.625 µg/mL	0.403
B. subtilis 168 [1], first compound 0.125 µg/mL, partner 1.25 µg/mL	0.38
B. subtilis 168 [1], first compound 0.125 µg/mL, partner 2.5 µg/mL	0.373
B. subtilis 168 [1], first compound 0.25 µg/mL, partner 0.625 µg/mL	0.38
B. subtilis 168 [1], first compound 0.25 µg/mL, partner 1.25 µg/mL	0.381
B. subtilis 168 [1], first compound 0.25 µg/mL, partner 2.5 µg/mL	0.369
S. aureus DSM 20231 [2], first compound 0.125 µg/mL, partner 0.625 µg/mL	0.0566
S. aureus DSM 20231 [2], first compound 0.125 µg/mL, partner 1.25 µg/mL	0.0685
S. aureus DSM 20231 [2], first compound 0.125 µg/mL, partner 2.5 µg/mL	0.0748
S. aureus Newman [3], first compound 0.0312 µg/mL, partner 0.625 µg/mL	0.666
S. aureus Newman [3], first compound 0.0312 µg/mL, partner 1.25 µg/mL	0.801
S. aureus Newman [3], first compound 0.0312 µg/mL, partner 2.5 µg/mL	0.821
S. aureus Newman [3], first compound 0.0625 µg/mL, partner 1.25 µg/mL	0.425
S. aureus Newman [3], first compound 0.0625 µg/mL, partner 2.5 µg/mL	0.444
S. aureus Newman [3], first compound 0.125 µg/mL, partner 0.625 µg/mL	0.0588
S. aureus Newman [3], first compound 0.125 µg/mL, partner 1.25 µg/mL	0.056
S. aureus Newman [3], first compound 0.125 µg/mL, partner 2.5 µg/mL	0.0505
S. pneumoniae D39V [4], first compound 0.0125 µg/mL, partner 1.25 µg/mL	0.815
S. pneumoniae D39V [4], first compound 0.0125 µg/mL, partner 2.5 µg/mL	0.827
S. pneumoniae D39V [4], first compound 0.0125 µg/mL, partner 5 µg/mL	0.828
S. pneumoniae D39V [4], first compound 0.015 µg/mL, partner 1.073 µg/mL	0.956
S. pneumoniae D39V [4], first compound 0.015 µg/mL, partner 2.145 µg/mL	0.912
S. pneumoniae D39V [4], first compound 0.015 µg/mL, partner 4.29 µg/mL	0.841
S. pneumoniae D39V [4], first compound 0.025 µg/mL, partner 1.25 µg/mL	0.581
S. pneumoniae D39V [4], first compound 0.025 µg/mL, partner 2.5 µg/mL	0.553
S. pneumoniae D39V [4], first compound 0.025 µg/mL, partner 5 µg/mL	0.518
S. pneumoniae D39V [4], first compound 0.03 µg/mL, partner 1.073 µg/mL	0.833
S. pneumoniae D39V [4], first compound 0.03 µg/mL, partner 2.145 µg/mL	0.839
S. pneumoniae D39V [4], first compound 0.03 µg/mL, partner 4.29 µg/mL	0.771
S. pneumoniae D39V [4], first compound 0.05 µg/mL, partner 1.25 µg/mL	0.269
S. pneumoniae D39V [4], first compound 0.05 µg/mL, partner 2.5 µg/mL	0.242
S. pneumoniae D39V [4], first compound 0.05 µg/mL, partner 5 µg/mL	0.246
S. pneumoniae D39V [4], first compound 0.06 µg/mL, partner 1.073 µg/mL	0.61
S. pneumoniae D39V [4], first compound 0.06 µg/mL, partner 2.145 µg/mL	0.682
S. pneumoniae D39V [4], first compound 0.06 µg/mL, partner 4.29 µg/mL	0.642

Conditions	Bliss interaction score
B. subtilis 168 [5]	0.0367
S. aureus DSM 20231 [6]	0.0542
S. aureus Newman [7]	0.0887
S. pneumoniae D39V [8]	0.0971
